Like-named read-outs stand apart in the source and are kept apart here.
Tests used:
[1] = molecular target: T1, TRα (Homo sapiens, UniProt P10827); experiment: TR reporter-gene assay (Gal4 DBD hybrid, luciferase), TRα; type: cell-based
T1 construct: expressed in transfected cells; host or cells: HEK293
T1 sequence (P10827 1-410 isoform P10827-2): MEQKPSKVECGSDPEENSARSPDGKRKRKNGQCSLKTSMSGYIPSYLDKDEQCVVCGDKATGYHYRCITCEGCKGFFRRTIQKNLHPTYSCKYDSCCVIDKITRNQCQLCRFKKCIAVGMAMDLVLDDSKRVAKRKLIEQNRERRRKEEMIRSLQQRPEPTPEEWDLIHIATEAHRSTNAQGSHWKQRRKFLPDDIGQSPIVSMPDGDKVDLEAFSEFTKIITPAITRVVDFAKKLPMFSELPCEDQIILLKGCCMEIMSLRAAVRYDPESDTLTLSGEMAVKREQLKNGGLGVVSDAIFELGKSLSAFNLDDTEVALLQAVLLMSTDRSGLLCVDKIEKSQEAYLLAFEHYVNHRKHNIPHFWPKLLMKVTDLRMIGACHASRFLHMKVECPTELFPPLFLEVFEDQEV
Description: (§1) Compounds were tested for thyroid-hormone receptor activity using TR reporter-gene assays. Reporter cells used in the assays express a TR-receptor hybrid (either TRα or TRβ) in which the native N-terminal DNA binding domain (DBD) has been replaced with that of the yeast Gal4 DBD. The reporter gene, firefly luciferase, is functionally linked to the Gal4 upstream activation sequence (UAS). Both cell lines were derived from human embryonic kidney (HEK293).
(§2) Step 1: A suspension of reporter cells was prepared in cell recovery medium containing 10% charcoal-stripped FBS, and dispensed into assay plates. The plates were pre-incubated for 6 hours in a cell culture incubator (37° C./5% CO2/85% humidity).
(§3) These intermediate stocks were subsequently diluted directly into compound screening medium containing 10% charcoal-stripped FBS to generate “2×-concentration” treatment media (containing 0.2, 0.4 or 0.8% DMSO).
(§4) Step 3: At the end of the pre-incubation period, culture media were discarded from the assay plates, and all wells received 100 μl of compound screening medium. 100 μl of each of the previously prepared “2×-concentration” treatment media were dispensed into duplicate assay wells, thereby achieving the desired final treatment concentrations. The final concentration of DMSO in all assay wells was 0.1, 0.2 or 0.4%. Assay plates were incubated for 24 hr in a cell culture incubator (37° C./5% CO2/85% humidity).
(§5) Step 4: At the 24 h assay endpoint, treatment media were discarded and 100 µl/well of luciferase detection reagent was added. Relative luminometer units (RLUs) were quantified from each assay well.

[2] = molecular target: T2, TRβ (Homo sapiens, UniProt P10828); experiment: TR reporter-gene assay (Gal4 DBD hybrid, luciferase), TRβ; type: cell-based
T2 construct: expressed in transfected cells; host or cells: HEK293
T2 sequence (P10828 217-461 limits assumed): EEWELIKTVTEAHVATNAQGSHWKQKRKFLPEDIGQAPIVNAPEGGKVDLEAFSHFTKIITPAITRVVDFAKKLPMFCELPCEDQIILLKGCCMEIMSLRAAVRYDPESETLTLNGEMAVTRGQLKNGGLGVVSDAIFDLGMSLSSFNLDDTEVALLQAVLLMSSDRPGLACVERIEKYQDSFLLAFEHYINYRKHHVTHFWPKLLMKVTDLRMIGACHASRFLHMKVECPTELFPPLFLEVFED
Description: as §1, §2, §3, §4, §5

[3] = HEK293-derived reporter cells, 24 hr treatment, read-out: TRα EC50
[4] = HEK293-derived reporter cells, 24 hr treatment, read-out: TRβ EC50

SMILES	EC50 [1, 3] [nM]	EC50 [2, 4] [nM]	T3-SI (selectivity index, EC50 (TRα)/EC50 (TRβ)) ([2]; class symbols)	T3-SI (selectivity index, EC50 (TRα)/EC50 (TRβ)) ([2]; given as a number)	EC50 [1] [nM]	EC50 [2] [nM]
CC(C)c1cc(Cc2c(Cl)cc(CS(=O)(=O)CC(=O)O)cc2Cl)ccc1O [Compound 97, 2-((3,5-dichloro-4-(4-hydroxy-3-isopropylbenzyl)benzyl)sulfonyl)acetic acid]	> 1000	> 1000	++ (3× < T3-SI ≤ 30×)			
CC(C)c1cc(Cc2c(Cl)cc(CC3NC(=O)NC3=O)cc2Cl)ccc1O (stereo not drawn) [Compound 144, 5-(3,5-dichloro-4-(4-hydroxy-3-isopropylbenzyl)benzyl)imidazolidine-2,4-dione]	100 to 1000	> 1000	+ (T3-SI ≤ 3×)			
CNC(=O)C(F)(F)Oc1cc(Cl)c(Cc2ccc(O)c(C(C)C)c2)c(Cl)c1 [Compound 84, 2-(3,5-dichloro-4-(4-hydroxy-3-isopropylbenzyl)phenoxy)-2,2-difluoro-N-methylacetamide]	100 to 1000	100 to 1000	+ (T3-SI ≤ 3×)			
Cc1c(F)c(NCC(=O)O)cc(Cl)c1Cc1ccc(O)c(C(C)C)c1F [Compound 133, (5-chloro-2-fluoro-4-(2-fluoro-4-hydroxy-3-isopropylbenzyl)-3-methylphenyl)glycine]	< 10	< 10	++ (3× < T3-SI ≤ 30×)			
Cc1cc(NCC(=O)O)cc(Cl)c1Cc1ccc(O)c(C(C)C)c1F [Compound 247, (3-chloro-4-(2-fluoro-4-hydroxy-3-isopropylbenzyl)-5-methylphenyl)glycine]	10 to 100	10 to 100	++ (3× < T3-SI ≤ 30×)			
CC(C)c1c(O)ccc(Cc2c(Cl)cc(OCCCCC(=O)O)cc2Cl)c1F [Compound 54, 5-(3,5-dichloro-4-(2-fluoro-4-hydroxy-3-isopropylbenzyl)phenoxy)pentanoic acid]	10 to 100	10 to 100	+ (T3-SI ≤ 3×)			
CC(C)c1cc(Cc2c(Cl)cc(OC(F)C(=O)O)cc2Cl)ccc1O (stereo not drawn) [Compound 81, 2-(3,5-dichloro-4-(4-hydroxy-3-isopropylbenzyl)phenoxy)-2-fluoroacetic acid]	100 to 1000	100 to 1000	++ (3× < T3-SI ≤ 30×)			
CC(C)c1c(O)ccc(Cc2c(Cl)cc(NC(=O)C(=O)O)cc2Cl)c1F [Compound 213, 2-((3,5-dichloro-4-(2-fluoro-4-hydroxy-3-isopropylbenzyl)phenyl)amino)-2-oxoacetic acid]	100 to 1000	100 to 1000		7.15		
CC(C)c1c(O)ccc(Cc2c(Cl)cc(SCC(=O)O)cc2Cl)c1F [Compound 203, 2-((3,5-dichloro-4-(2-fluoro-4-hydroxy-3-isopropylbenzyl)phenyl)thio)acetic acid]	10 to 100	10 to 100	++ (3× < T3-SI ≤ 30×)			
Cc1cc(CCC(=O)O)cc(Cl)c1Cc1ccc(O)c(C(C)C)c1F [Compound 249, 3-(3-chloro-4-(2-fluoro-4-hydroxy-3-isopropylbenzyl)-5-methylphenyl)propanoic acid]	10 to 100	10 to 100	++ (3× < T3-SI ≤ 30×)			
C[Si](C)(C)c1c(O)ccc(Cc2c(Cl)cc(CC(=O)O)c(F)c2Cl)c1F [Compound 151, 2-(3,5-dichloro-2-fluoro-4-(2-fluoro-4-hydroxy-3-(trimethylsilyl)benzyl)phenyl)acetic acid]			++ (3× < T3-SI ≤ 30×)		100 to 1000	100 to 1000
Cc1c(F)c(SCC(=O)O)cc(Cl)c1Cc1ccc(O)c(C(C)C)c1 [Compound 227, 2-((5-chloro-2-fluoro-4-(4-hydroxy-3-isopropylbenzyl)-3-methylphenyl)thio)acetic acid]	100 to 1000	100 to 1000	++ (3× < T3-SI ≤ 30×)			
CC(C)c1c(O)ccc(Cc2c(Cl)cc(CNCC(=O)O)cc2Cl)c1F [Compound 110, (3,5-dichloro-4-(2-fluoro-4-hydroxy-3-isopropylbenzyl)benzyl)glycine]	10 to 100	100 to 1000	+ (T3-SI ≤ 3×)			
C/C(=C\c1cc(Cl)c(Cc2ccc(O)c(C(C)C)c2F)c(Cl)c1)C(=O)O [Compound 205, (E)-3-(3,5-dichloro-4-(2-fluoro-4-hydroxy-3-isopropylbenzyl)phenyl)-2-methylacrylic acid]	< 10	< 10	++ (3× < T3-SI ≤ 30×)			
Cc1cc(/C=C/C(=O)O)cc(Cl)c1Cc1ccc(O)c(C(C)C)c1F [Compound 250, (E)-3-(3-chloro-4-(2-fluoro-4-hydroxy-3-isopropylbenzyl)-5-methylphenyl)acrylic acid]	10 to 100	10 to 100	+ (T3-SI ≤ 3×)			
CC(c1ccc(F)cc1)c1c(O)ccc(Cc2c(Cl)cc(NC(=O)CC(=O)O)cc2Cl)c1F (stereo not drawn) [Compound 56, 3-((3,5-dichloro-4-(2-fluoro-3-(1-(4-fluorophenyl)ethyl)-4-hydroxybenzyl)phenyl)amino)-3-oxopropanoic acid]	100 to 1000	10 to 100	++ (3× < T3-SI ≤ 30×)			
CC(C)c1c(O)ccc(Cc2c(Cl)cc(CNCC(=O)O)c(F)c2Cl)c1F [Compound 153, (3,5-dichloro-2-fluoro-4-(2-fluoro-4-hydroxy-3-isopropylbenzyl)benzyl)glycine]	10 to 100	10 to 100	++ (3× < T3-SI ≤ 30×)			
CC(C)c1c(O)ccc(Cc2c(Cl)cc(OCCCC(=O)O)cc2Cl)c1F [Compound 52, 4-(3,5-dichloro-4-(2-fluoro-4-hydroxy-3-isopropylbenzyl)phenoxy)butanoic acid]	100 to 1000	100 to 1000	+ (T3-SI ≤ 3×)			
CC(C)c1cc(Cc2c(Cl)cc(/C=C/CC(=O)O)cc2Cl)ccc1O [Compound 15, (E)-4-(3,5-dichloro-4-(4-hydroxy-3-isopropylbenzyl)phenyl)but-3-enoic acid]	10 to 100	10 to 100	++ (3× < T3-SI ≤ 30×)			
CC(C)c1cc(Cc2c(Cl)cc(OC(F)(F)C(=O)O)cc2Cl)ccc1O [Compound 82, 2-(3,5-dichloro-4-(4-hydroxy-3-isopropylbenzyl)phenoxy)-2,2-difluoroacetic acid]	> 1000	100 to 1000	++ (3× < T3-SI ≤ 30×)			
CC(c1ccc(F)cc1)c1c(O)ccc(Cc2c(Cl)cc(CC(=O)O)cc2Cl)c1F (stereo not drawn) [Compound 37, 2-(3,5-dichloro-4-(2-fluoro-3-(1-(4-fluorophenyl)ethyl)-4-hydroxybenzyl)phenyl)acetic acid]	10 to 100	< 10	++ (3× < T3-SI ≤ 30×)			
Cc1cc(SCC(=O)O)c(F)c(Cl)c1Cc1ccc(O)c(C(C)C)c1 [Compound 225, 2-((3-chloro-2-fluoro-4-(4-hydroxy-3-isopropylbenzyl)-5-methylphenyl)thio)acetic acid]	100 to 1000	100 to 1000	++ (3× < T3-SI ≤ 30×)			
C=C(Cc1cc(Cl)c(Cc2ccc(O)c(C(C)C)c2F)c(Cl)c1)C(=O)O [Compound 201, 2-(3,5-dichloro-4-(2-fluoro-4-hydroxy-3-isopropylbenzyl)benzyl)acrylic acid]	< 10	< 10	++ (3× < T3-SI ≤ 30×)			
Cc1cc(C[S+]([O-])CC(=O)O)cc(Cl)c1Cc1ccc(O)c(C(C)C)c1 (stereo not drawn) [Compound 246, 2-((3-chloro-4-(4-hydroxy-3-isopropylbenzyl)-5-methylbenzyl)sulfinyl)acetic acid]	> 1000	> 1000	++ (3× < T3-SI ≤ 30×)			

From US12528761B2, “Thyromimetics” (Autobahn Therapeutics, Inc., priority 2020, dated 2026)
